Tests used:
[1] = tested on: P. aeruginosa PAM1154 carrying KPC-2::D179Y (PAM4639); assay: Checkerboard potentiation of antibiotic activity by BLIs; format: cell-based, Pseudomonas aeruginosa; conditions: for Beta-lactam MIC in the presence of BLI: PAM4639 KPC-2 D179Y
From the text: (§1) BLI potency was defined as PV50 (PV, potentiation value) of antibiotic potentiation. PV50 is the concentration of a BLI that is required to reduce the antibiotic MIC to the middle of the MIC range where the highest MIC is the MIC for a KPC-producing strain with no inhibitor added and the lowest MIC is the MIC for the vector-alone strain, which corresponds to complete inhibition of KPC. As a given MIC is directly related to the β-lactamase activity, PV50 might be considered the concentration of a BLI that is required to achieve half-effect of inhibition of β-lactamase activity (in whole cells) to hydrolyze an antibiotic of interest. […] However, the accurate determination of PV50 requires the MIC range to be relatively wide.
(§2) For microbiological studies, wild-type blaKPC-2 and its mutant variants were cloned into the shuttle vector pUCP24. Resulting plasmids were transformed in the efflux-deficient strain of P. aeruginosa PAM1154 using selection on 15 μg/ml of gentamicin. Using a strain of P. aeruginosa as opposed to E. coli as a host for various cloned genes was based on the following consideration. As well documented elsewhere ([41]), P. aeruginosa has a low-permeability outer membrane; consequently, the effect of β-lactamases on MIC is amplified in P. aeruginosa compared to that in E. coli due to the slowed uptake of β-lactams. Thus, this host is appropriate to detect β-lactamase activity (as an MIC increase) of low-catalytic-efficiency enzymes that rely heavily on low permeability of the outer membrane. […] MICs were determined using the Clinical and Laboratory Standards Institute (CLSI) broth microdilution method as described in CLSI document M07-A11 ([42]). […] BLI potency was defined as PV50 (PV, potentiation value). PV50 is the minimal concentration of a BLI that is required to reduce the antibiotic MIC to the middle of the MIC range (E50) where the highest MIC is the MIC for a KPC-producing strain with no inhibitor added and the lowest MIC is the MIC for the vector-only strain, corresponding to the complete inhibition of KPC. E50 is calculated as the square root of the product of the antibiotic MICs for the KPC-producing and the vector-only strains.
(§3) […]
(§4) […]

[2] = tested on: P. aeruginosa PAM1154 carrying wild-type KPC-2 (PAM4135); assay: as above; format: cell-based, Pseudomonas aeruginosa; conditions: PAM4135 KPC-2
From the text: as §1, §2, §3, §4

[3] = tested on: P. aeruginosa PAM1154 carrying KPC-2::L169P (PAM4751); assay: as above; format: cell-based, Pseudomonas aeruginosa; conditions: for Beta-lactam MIC in the presence of BLI: PAM4751 KPC-2 L169P
From the text: as §1, §2, §3, §4

[4] = tested on: P. aeruginosa PAM1154 carrying pUCP24-KPC-2 (PAM4135); assay: MIC, CLSI broth microdilution; format: cell-based; conditions: Pseudomonas aeruginosa; PAM4135, pUCP24-KPC-2; drug alone
From the text: (§5) The effects of KPC mutations on resistance to various antibiotics were investigated. For these studies, pUCP24 plasmids carrying wild-type and mutant blaKPC-2 genes as well as the pUCP24 vector were transformed into PAM1154, an efflux-deficient strain of Pseudomonas aeruginosa. In this host, the effect of β-lactamases on β-lactam MIC is amplified due to the slowed uptake of β-lactams across the low-permeability outer membrane without interference by efflux of either β-lactams or BLIs. Consequently, this host allows detection of β-lactamase activity (as an MIC increase) of low-catalytic-efficiency enzymes that rely heavily on the low permeability of the outer membrane. Using the strain that lacks efflux pumps ensures no interference from efflux in interpreting results. We next evaluated the steady-state protein expression levels in bacterial cells.
as §2

[5] = tested on: P. aeruginosa PAM1154 carrying pUCP24-KPC-2::L169P (PAM4751); assay: MIC, CLSI broth microdilution; format: cell-based, Pseudomonas aeruginosa; conditions: for MIC: Pseudomonas aeruginosa, PAM4751, pUCP24-KPC-2::L169P, drug alone
From the text: as §5, §2

[6] = tested on: P. aeruginosa PAM1154 carrying pUCP24-KPC-2::D179Y (PAM4639); assay: MIC, CLSI broth microdilution; format: cell-based, Pseudomonas aeruginosa; conditions: for MIC: Pseudomonas aeruginosa, PAM4639, pUCP24-KPC-2::D179Y, drug alone
From the text: as §5, §2

CO/N=C(\C(=O)N[C@@H]1C(=O)N2C(C(=O)[O-])=C(C[N+]3(C)CCCC3)CS[C@H]12)c1csc(N)n1 [Cefepime, cefepime]
Antibiotic MIC with avibactam at 4 μg/ml ([1]; PAM4639 KPC-2::D179Y, avibactam 4 μg/ml): 2 µg/mL | Antibiotic MIC, No BLI ([1]; PAM4639 KPC-2::D179Y, no BLI): 32 µg/mL | Antibiotic MIC with vaborbactam at 8 μg/ml ([1]; PAM4639 KPC-2::D179Y, vaborbactam 8 μg/ml): 0.25 µg/mL | Beta-lactam MIC in the presence of BLI ([1]; avibactam 0 µg/ml): 32 µg/mL | Beta-lactam MIC in the presence of BLI ([1]; avibactam 0.008 µg/ml): 32 µg/mL | Beta-lactam MIC in the presence of BLI ([1]; avibactam 0.031 µg/ml): 32 µg/mL | Beta-lactam MIC in the presence of BLI ([1]; avibactam 0.06 µg/ml): 32 µg/mL | Beta-lactam MIC in the presence of BLI ([1]; avibactam 0.5 µg/ml): 16 µg/mL | Beta-lactam MIC in the presence of BLI ([1]; avibactam 1 µg/ml): 4 µg/mL | Beta-lactam MIC in the presence of BLI ([1]; avibactam 2 µg/ml): 4 µg/mL | Beta-lactam MIC in the presence of BLI ([1]; avibactam 4 µg/ml): 2 µg/mL | Beta-lactam MIC in the presence of BLI ([1]; avibactam 8 µg/ml): 1 µg/mL | Beta-lactam MIC in the presence of BLI ([1]; avibactam 16 µg/ml): 0.5 µg/mL | Beta-lactam MIC in the presence of BLI ([1]; vaborbactam 0 µg/ml): 32 µg/mL | Beta-lactam MIC in the presence of BLI ([1]; vaborbactam 0.008 µg/ml): 32 µg/mL | Beta-lactam MIC in the presence of BLI ([1]; vaborbactam 0.031 µg/ml): 32 µg/mL | Beta-lactam MIC in the presence of BLI ([1]; vaborbactam 0.06 µg/ml): 32 µg/mL | Beta-lactam MIC in the presence of BLI ([1]; vaborbactam 0.5 µg/ml): 8 µg/mL | Beta-lactam MIC in the presence of BLI ([1]; vaborbactam 1 µg/ml): 1 µg/mL | Beta-lactam MIC in the presence of BLI ([1]; vaborbactam 2 µg/ml): 0.5 µg/mL | Beta-lactam MIC in the presence of BLI ([2]; avibactam 0 µg/ml): 64 µg/mL | Beta-lactam MIC in the presence of BLI ([2]; avibactam 0.008 µg/ml): 64 µg/mL | Beta-lactam MIC in the presence of BLI ([2]; avibactam 0.031 µg/ml): 64 µg/mL | Beta-lactam MIC in the presence of BLI ([2]; avibactam 0.06 µg/ml): 32 µg/mL | Beta-lactam MIC in the presence of BLI ([2]; avibactam 0.5 µg/ml): 0.5 µg/mL | Antibiotic MIC, No BLI ([2]; no BLI): 64 µg/mL | Beta-lactam MIC in the presence of BLI ([2]; vaborbactam 0 µg/ml): 64 µg/mL | Beta-lactam MIC in the presence of BLI ([2]; vaborbactam 0.008 µg/ml): 64 µg/mL | Beta-lactam MIC in the presence of BLI ([2]; vaborbactam 0.031 µg/ml): 64 µg/mL | Beta-lactam MIC in the presence of BLI ([2]; vaborbactam 0.06 µg/ml): 64 µg/mL | Beta-lactam MIC in the presence of BLI ([2]; vaborbactam 0.5 µg/ml): 2 µg/mL | Antibiotic MIC with avibactam at 4 μg/ml ([3]; PAM4751 KPC-2::L169P, avibactam 4 μg/ml): 0.5 µg/mL | Antibiotic MIC, No BLI ([3]; PAM4751 KPC-2::L169P, no BLI): 32 µg/mL | Beta-lactam MIC in the presence of BLI ([3]; avibactam 0 µg/ml): 32 µg/mL | Beta-lactam MIC in the presence of BLI ([3]; avibactam 0.008 µg/ml): 32 µg/mL | Beta-lactam MIC in the presence of BLI ([3]; avibactam 0.031 µg/ml): 32 µg/mL | Beta-lactam MIC in the presence of BLI ([3]; avibactam 0.06 µg/ml): 32 µg/mL | Beta-lactam MIC in the presence of BLI ([3]; avibactam 0.5 µg/ml): 4 µg/mL | Beta-lactam MIC in the presence of BLI ([3]; avibactam 1 µg/ml): 2 µg/mL | Beta-lactam MIC in the presence of BLI ([3]; avibactam 2 µg/ml): 1 µg/mL | Beta-lactam MIC in the presence of BLI ([3]; avibactam 4 µg/ml): 0.5 µg/mL | Beta-lactam MIC in the presence of BLI ([3]; vaborbactam 0 µg/ml): 32 µg/mL | Beta-lactam MIC in the presence of BLI ([3]; vaborbactam 0.008 µg/ml): 32 µg/mL | Beta-lactam MIC in the presence of BLI ([3]; vaborbactam 0.031 µg/ml): 32 µg/mL | Beta-lactam MIC in the presence of BLI ([3]; vaborbactam 0.06 µg/ml): 32 µg/mL | Beta-lactam MIC in the presence of BLI ([3]; vaborbactam 0.5 µg/ml): 4 µg/mL | Beta-lactam MIC in the presence of BLI ([3]; vaborbactam 1 µg/ml): 0.5 µg/mL | MIC [4]: 256 µg/mL | reduction of MIC vs wild-type KPC-2 strain ([5]; L169P strain): 4 fold | MIC [5]: 64 µg/mL | increase of MIC vs vector-only strain ([5]; {}): 512 fold | reduction of MIC vs wild-type KPC-2 strain ([6]; D179Y strain): 4 fold | MIC [6]: 64 µg/mL | increase of MIC vs vector-only strain ([6]; {}): 512 fold

O=C(O)C[C@@H]1CC[C@H](NC(=O)Cc2cccs2)B(O)O1 [Vaborbactam, vaborbactam]
PV50 ([1]; PAM4639 KPC-2::D179Y, potentiation of cefepime): 1 µg/mL | PV50 ([1]; PAM4639 KPC-2::D179Y, potentiation of ceftazidime): 1 µg/mL | PV50 ([1]; PAM4639 KPC-2::D179Y, potentiation of piperacillin): 1 µg/mL | PV50 ([2]; potentiation of cefepime): 0.5 µg/mL | PV50 ([2]; potentiation of ceftazidime): 0.5 µg/mL | PV50 ([2]; potentiation of piperacillin): 1 µg/mL | reduction of potency to enhance ceftazidime, cefepime or piperacillin vs wild-type KPC-2 ([3]; L169P, depending on the antibiotic): no more than 2 fold | PV50 ([3]; PAM4751 KPC-2::L169P, potentiation of cefepime): 1 µg/mL | PV50 ([3]; PAM4751 KPC-2::L169P, potentiation of ceftazidime): 1 µg/mL | PV50 ([3]; PAM4751 KPC-2::L169P, potentiation of piperacillin): 1 µg/mL | MIC [4]: > 256 µg/mL | MIC [5]: > 256 µg/mL | MIC [6]: > 256 µg/mL
